Article PMC10799935, “Discovery of a peripheral 5HT2A antagonist as a clinical candidate for metabolic dysfunction-associated steatohepatitis” (Nature Communications, 2024)
Values joined by “and” are separate entries in the source; they are usually repeats but may differ in a detail not shown here. Equal entries are not always repeated.

Columns and labels:
[1] = system: HFD-fed C57BL/6J mice; test: DIO mice: blood profiling (serum cholesterol, triglyceride); format: in vivo, mouse; conditions: for Serum TG levels, Mean Diff. (Vehicle vs. treated) / Serum total cholesterol levels, Mean Diff. (Vehicle vs. treated) / Serum TG levels, group mean / Serum total cholesterol levels (CHO), group mean: DIO mice; for Serum TG levels, Mean Diff. (Vehicle vs. treated) / Serum total cholesterol levels, Mean Diff. (Vehicle vs. treated): Dunnett's multiple comparisons test; for Serum TG levels, group mean / Serum total cholesterol levels (CHO), group mean: PO
Method: Blood samples were obtained by cardiac puncture, and plasma was isolated. Blood profiling was performed by GC Pharma (Green Cross Corporation). Plasma TG and cholesterol were detected with an in vitro enzymatic colorimetric assay (CHOL2 and TRIGL; Roche, Germany) using a Cobas 8000 clinical analyzer with a c702 module (Roche).

[2] = system: HFD-fed C57BL/6J mice; test: DIO mice: tissue weight; format: in vivo, mouse; conditions: for Tissue Weight Kidney / Tissue Weight Liver / Tissue Weight Pancreas / Tissue Weight eWAT / Tissue Weight iWAT: PO; for Predicted (LS) mean diff. (Vehicle vs. 11c), Tissue Weight: Dunnett's multiple comparisons test; for Significant? (Vehicle vs. 11c), Tissue Weight: Dunnett's test, alpha 0.05; for Predicted (LS) mean 2 (11c group), Tissue Weight: test details, in g (unit assumed)
Description: For in vivo efficacy in DIO models and CDAHFD models, the experimental protocol for this study was approved by the Institutional Animal Care and Use Committee (IACUC) at the Korea Advanced Institute of Science and Technology (No. KA2023-027-v2) or Kyungpook National University (No. KNU-20200134). All relevant ethical guidelines were followed. C57BL/6 J male mice (11 weeks old) were purchased from the Charles River Japan and were housed in a specific pathogen-free barrier facility under a regular light-dark cycle (12-hour light/12-hour dark) at 24°C with 40–60% humidity. Food (standard chow diet, Envigo, 2018S) and water were provided ad libitum. […] Mice were euthanized by the method of cervical dislocation. The measurement of lean and fat mass in live mice was performed by a body composition analyzer (LF50 BCA-analyzer, Bruker). After 6 h of fasting, mice were sacrificed, and tissue samples were obtained.

[3] = DIO mice, 5mpk, individual animals, 5 mg/kg
[4] = DIO mice, 10mpk, individual animals, 10 mg/kg

Cc1nc2n(c(=O)c1CCN1CCC(=C3c4ccc(Cl)cc4CCc4cccnc43)CC1)CCCC2O (stereo not drawn) [Compound 11c]
Serum TG levels, Mean Diff. (Vehicle vs. treated) ([1]; 5mpk): 32.28 mg/dL
Serum total cholesterol levels, Mean Diff. (Vehicle vs. treated) ([1]; 5mpk): -18.72 mg/dL
Serum TG levels, Mean Diff. (Vehicle vs. treated) ([1]; 10mpk): 36.37 mg/dL
Serum total cholesterol levels, Mean Diff. (Vehicle vs. treated) ([1]; 10mpk): 0.9883 mg/dL
Serum TG levels, group mean ([1]; 5mpk): 71.94 mg/dL
Serum total cholesterol levels (CHO), group mean ([1]; 5mpk, 5 mg/kg): 220.6 mg/dL
Serum TG levels, group mean ([1]; 10mpk): 67.86 mg/dL
Serum total cholesterol levels (CHO), group mean ([1]; 10mpk, 10 mg/kg): 200.9 mg/dL
serum triglyceride levels ([1]; high-fat diet-induced NAFLD mice): significant reduction
Tissue Weight Kidney ([2]; DIO mice, 5mpk, group mean): 0.17 g
Tissue Weight Liver ([2]; DIO mice, 5mpk, group mean): 1.34 g
Tissue Weight Pancreas ([2]; DIO mice, 5mpk, group mean): 0.39 g
Tissue Weight eWAT ([2]; DIO mice, 5mpk, group mean): 1.01 g
Tissue Weight iWAT ([2]; DIO mice, 5mpk, group mean): 1.37 g
Tissue Weight Kidney [2, 3]: 0.166 g and 0.156 g and 0.168 g and 0.162 g and 0.198 g and 0.195 g and 0.164 g
Tissue Weight Liver [2, 3]: 1.353 g and 1.128 g and 1.239 g and 1.293 g and 1.762 g and 1.451 g
Tissue Weight Pancreas [2, 3]: 0.398 g and 0.353 g and 0.255 g and 0.338 g and 0.634 g and 0.394 g and 0.387 g
Tissue Weight eWAT [2, 3]: 1.284 g and 1.045 g and 0.952 g and 0.74 g and 0.897 g and 0.939 g and 1.199 g
Tissue Weight iWAT [2, 3]: 1.826 g and 1.295 g and 1.198 g and 1.045 g and 1.186 g and 1.418 g and 1.644 g
Tissue Weight Kidney ([2]; DIO mice, 10mpk, group mean): 0.18 g
Tissue Weight Liver ([2]; DIO mice, 10mpk, group mean): 1.25 g
Tissue Weight Pancreas ([2]; DIO mice, 10mpk, group mean): 0.36 g
Tissue Weight eWAT ([2]; DIO mice, 10mpk, group mean): 0.57 g
Tissue Weight iWAT ([2]; DIO mice, 10mpk, group mean): 1.15 g
Tissue Weight Kidney [2, 4]: 0.183 g and 0.162 g and 0.142 g and 0.267 g and 0.16 g
Tissue Weight Liver [2, 4]: 1.17 g and 1.368 g and 1.031 g and 1.332 g and 1.38 g and 1.246 g
Tissue Weight Pancreas [2, 4]: 0.302 g and 0.381 g and 0.318 g and 0.442 g and 0.387 g and 0.34 g
Tissue Weight eWAT [2, 4]: 0.449 g and 0.747 g and 0.512 g and 0.764 g and 0.418 g
Tissue Weight iWAT [2, 4]: 0.774 g and 1.585 g and 1.202 g and 1.593 g and 1.007 g and 0.712 g
Tissue weight of inguinal white adipose tissue (iWAT) ([2]; DIO mice, vs vehicle): significantly decreased
Tissue weight of liver ([2]; DIO mice, vs vehicle): significantly decreased
Predicted (LS) mean diff. (Vehicle vs. 11c), Tissue Weight ([2]; Kidney, 5mpk): 0.01612
Significant? (Vehicle vs. 11c), Tissue Weight ([2]; Kidney, 5mpk): No
Predicted (LS) mean 2 (11c group), Tissue Weight ([2]; Kidney, 5mpk): 0.1727
Predicted (LS) mean diff. (Vehicle vs. 11c), Tissue Weight ([2]; Kidney, 10mpk): 0.006
Significant? (Vehicle vs. 11c), Tissue Weight ([2]; Kidney, 10mpk): No
Predicted (LS) mean 2 (11c group), Tissue Weight ([2]; Kidney, 10mpk): 0.1828
Predicted (LS) mean diff. (Vehicle vs. 11c), Tissue Weight ([2]; Liver, 5mpk): 0.2072
Significant? (Vehicle vs. 11c), Tissue Weight ([2]; Liver, 5mpk): No
Predicted (LS) mean 2 (11c group), Tissue Weight ([2]; Liver, 5mpk): 1.336
Predicted (LS) mean diff. (Vehicle vs. 11c), Tissue Weight ([2]; Liver, 10mpk): 0.289
Significant? (Vehicle vs. 11c), Tissue Weight ([2]; Liver, 10mpk): Yes
Predicted (LS) mean 2 (11c group), Tissue Weight ([2]; Liver, 10mpk): 1.255
Predicted (LS) mean diff. (Vehicle vs. 11c), Tissue Weight ([2]; Pancreas, 5mpk): 0.1064
Significant? (Vehicle vs. 11c), Tissue Weight ([2]; Pancreas, 5mpk): No
Predicted (LS) mean 2 (11c group), Tissue Weight ([2]; Pancreas, 5mpk): 0.3941
Predicted (LS) mean diff. (Vehicle vs. 11c), Tissue Weight ([2]; Pancreas, 10mpk): 0.1388
Significant? (Vehicle vs. 11c), Tissue Weight ([2]; Pancreas, 10mpk): No
Predicted (LS) mean 2 (11c group), Tissue Weight ([2]; Pancreas, 10mpk): 0.3617
Predicted (LS) mean diff. (Vehicle vs. 11c), Tissue Weight ([2]; eWAT, 5mpk): -0.00381
Significant? (Vehicle vs. 11c), Tissue Weight ([2]; eWAT, 5mpk): No
Predicted (LS) mean 2 (11c group), Tissue Weight ([2]; eWAT, 5mpk): 1.373
Predicted (LS) mean diff. (Vehicle vs. 11c), Tissue Weight ([2]; eWAT, 10mpk): 0.2238
Significant? (Vehicle vs. 11c), Tissue Weight ([2]; eWAT, 10mpk): No
Predicted (LS) mean 2 (11c group), Tissue Weight ([2]; eWAT, 10mpk): 1.146
Predicted (LS) mean diff. (Vehicle vs. 11c), Tissue Weight ([2]; iWAT, 5mpk): 0.08033
Significant? (Vehicle vs. 11c), Tissue Weight ([2]; iWAT, 5mpk): No
